# Patent US20260041677A1, “COMPOSITIONS AND METHODS FOR TREATING ADENOID CYSTIC CARCINOMA” (ELEVAR THERAPEUTICS, INC., priority 2022, published 2026)
# Several values for one entry are separate records, joined by “and”; a condition that tells them apart may be missing. Identical values can stand only once.
# Tested on: recurrent or metastatic (R/M) adenoid cystic carcinoma (ACC)
# Assay: Phase 2 single-arm study of rivoceranib in R/M ACC: response, DoR, PFS, TTP per RECIST V1.1
# Format: in vivo, human
# Settings: for estimated PFS rate at 9 months: efficacy evaluable
# Description: Overall design: An ongoing Phase 2, multicenter, open-label, single-arm study was designed to evaluate the efficacy and safety of rivoceranib in patients with recurrent or metastatic (R/M) adenoid cystic carcinoma (ACC) of all anatomic sites of origin. The study was composed of an initial screening phase (up to 28 days), a treatment phase, and a follow-up phase.
# Objectives: Primary objectives were to evaluate safety & tolerability, efficacy by objective response rate (ORR), best overall response (BOR), time to response, duration of response, disease control rate, and duration of disease control. Secondary objectives were to evaluate efficacy as measured by overall survival, progression-free survival and event-free survival. The primary efficacy endpoint was the ORR, defined as the proportion of patients who achieved confirmed complete response (CR) or partial response (PR) per Response Evaluation Criteria in Solid Tumors (RECIST) Version 1.1 (V1.1). The secondary efficacy endpoints were duration of response (DoR) assessed by the investigator and a blinded independent review committee (BIRC), progression-free survival (PFS) assessed at 6 months, 12 months, and 2 years by investigator and BIRC, Time to Progression (TTP) assessed by investigator and BIRC, and overall survival (OS) assessed at 1 and 2 years. Exploratory efficacy endpoints include ORR per CHOI response criteria (based on the journal article, Choi et al., Correlation of computed tomography and positron emission tomography in patients with metastatic gastrointestinal stromal tumor treated at a single institution with imatinib mesylate: proposal of new computed tomography response criteria. J Clin Oncol. 2007; 25(13): 1753-1759) by a blinded independent review […] (BIRC) and disease control rate (DCR) per RECIST V1.1 by Investigator and BIRC. Except for CHOI response criteria, all response endpoints were assessed per RECIST V1.1 by Investigator and BIRC.
# Patients: The study was conducted at 11 study sites in the USA and South Korea. A total of 80 patients were enrolled and received at least 1 dose of study drug (rivoceranib). Fifty-three patients were enrolled in the USA and 27 patients were enrolled in Korea. Eligible patients were 18 years or older and were required to have histologically or cytologically confirmed R/M ACC of any anatomic location not amenable to curative surgery or radiotherapy. Due to the indolent nature of the disease, patients were required to have evidence of disease progression by RECIST V1.1 within the 6 months prior to study entry, evidenced by: ≥20% increase in radiologically or clinically measurable lesions or appearance of new lesions. Patients were required to have at least 1 measurable target lesion by RECIST V1.1. There were no restrictions on prior systemic therapies. Patients were permitted to have prior VEGFR TKI exposure if dosage was discontinued within 5 half-lives prior to rivoceranib treatment. The patients were permitted if they have an Eastern Cooperative Oncology Group (ECOG) performance status of 0 or 1. Patients with treated central nervous system metastases were permitted if they were stable for four weeks prior to study treatment. Eligible patients had documented primary diagnosis of solid tumor cancer of ACC for which anti-VEGFR-2 targeted therapy could be applicable. The majority of patients had primary tumors in the major (33.8%) or minor (58.8%) salivary glands; 6 patients (7.5%) had primary tumors in other locations: lung, breast, trachea, Cowper's gland, intracranial temporal lobe and lymph node. Median time from original ACC diagnosis was 69.62 months. The majority of patients (92.5%) had metastatic disease.
# Dose determination: Enrolled patients initiated treatment with rivoceranib 700 mg daily (QD). Up to 3 levels of dose reduction for toxicity were permitted: 500 mg QD, 300 mg QD and 200 mg QD. Patients received treatment until disease progression, unacceptable toxicity, death or withdrawal of consent to treatment. […]
# [1] = RECIST V1.1, BIRC, 700 mg QD start
# [2] = RECIST V1.1, BIRC, Total N = 73, 700 mg QD start
# [3] = RECIST V1.1, BIRC, Total N = 73, Kaplan-Meier, 700 mg QD start
# [4] = RECIST V1.1, BIRC, VEGFRi-naïve N = 60, 700 mg QD start
# [5] = RECIST V1.1, BIRC, VEGFRi-naïve N = 60, Kaplan-Meier, 700 mg QD start
# [6] = RECIST V1.1, BIRC, VEGFRi-treated N = 13, 700 mg QD start
# [7] = RECIST V1.1, BIRC, VEGFRi-treated N = 13, Kaplan-Meier, 700 mg QD start
# [8] = RECIST V1.1, Investigator, 700 mg QD start
# [9] = RECIST V1.1, Investigator, Systemic therapy-naïve N = 29, 700 mg QD start
# [10] = RECIST V1.1, Investigator, Systemic therapy-treated N = 44, 700 mg QD start
# [11] = RECIST V1.1, Investigator, Total N = 73, 700 mg QD start
# [12] = RECIST V1.1, Investigator, Total N = 73, Kaplan-Meier, 700 mg QD start
# [13] = RECIST V1.1, Investigator, VEGFRi-naïve N = 60, 700 mg QD start
# [14] = RECIST V1.1, Investigator, VEGFRi-naïve N = 60, Kaplan-Meier, 700 mg QD start
# [15] = RECIST V1.1, Investigator, VEGFRi-treated N = 13, 700 mg QD start
# [16] = RECIST V1.1, Investigator, patients with ≥20% pre-study increase in lesions, N = 51
# [17] = confirmed objective response by Investigator
# [18] = within the 19.5-month follow-up, N = 80
structure (smiles),measurement,setting,value
"N#CC1(c2ccc(NC(=O)c3cccnc3NCc3ccncc3)cc2)CCCC1 [Rivoceranib, N-[4-(1-cyanocyclopentyl)phenyl]-2-{[(pyridin-4-yl)methyl]amino}pyridine-3-carboxamide]",remaining (non-ORR) patients who had a tumor size reduction,700 mg QD start,about 85%
same,median PFS,"Kaplan-Meier, patients previously treated with systemic therapy, 700 mg QD start",8.9 months
same,median PFS,"Kaplan-Meier, patients without any prior systemic therapy, 700 mg QD start",13.7 months
same,ORR based on patients assessed as responders by either Investigator or BIRC,"RECIST V1.1, 15 out of 73 patients, 700 mg QD start",20.5%
same,estimated TTP rate at 6 months,[1],80.7%
same,estimated TTP rate at 9 months,[1],57.3%
same,estimated TTP rate at 12 months,[1],41%
same,BOR: Complete Response,[2],0%
same,BOR: Not Evaluable,[2],1 (1.4) %
same,BOR: Partial Response,[2],7 (9.6) %
same,BOR: Progressive Disease,[2],5.5% and 4 (5.5) %
same,BOR: Stable Disease,[2],61 (83.6) %
same,"DCR (disease control rate, CR, PR or SD ≥3 months)",[2],65.8% and 64.4% and 48 (65.8) %
same,Median TTP (95% CI),[2],9.3 (8.5-13.6) months
same,ORR (objective response rate),[2],9.6% and 7 (9.6) %
same,"PFS landmark 6-months, % (95% CI)",[2],80.8 (68.5-88.6) %
same,"PFS landmark 12-months, % (95% CI)",[2],38.2 (25.0-51.3) %
same,DoR 25th percentile,[3],5.5 months
same,DoR 75th percentile,[3],8.3 months
same,DoR Median (95% CI),[3],"7.2 months and 7.2 (3.5, 8.4) months"
same,Median PFS (95% CI),[3],"9.2 months and 9.2 (8.0, 12.9) months"
same,BOR: Complete Response,[4],0%
same,BOR: Not Evaluable,[4],1 (1.7) %
same,BOR: Partial Response,[4],5 (8.3) %
same,BOR: Progressive Disease,[4],3 (5.0) %
same,BOR: Stable Disease,[4],51 (85) %
same,"DCR (disease control rate, CR, PR or SD ≥3 months)",[4],39 (65.0) %
same,Median PFS (95% CI),[4],9.3 (8.0-13.7) months
same,Median TTP (95% CI),[4],10.8 (8.5-13.8) months
same,ORR (objective response rate),[4],8.5% and 5 (8.3) %
same,"PFS landmark 6-months, % (95% CI)",[4],80.3 (66.3-88.9) %
same,"PFS landmark 12-months, % (95% CI)",[4],40.4 (25.6-54.6) %
same,DoR 25th percentile,[5],5.4 months
same,DoR 75th percentile,[5],8.3 months
same,BOR: Complete Response,[6],0%
same,BOR: Not Evaluable,[6],0%
same,BOR: Partial Response,[6],2 (15.4) %
same,BOR: Progressive Disease,[6],1 (7.7) %
same,BOR: Stable Disease,[6],10 (76.9) %
same,"DCR (disease control rate, CR, PR or SD ≥3 months)",[6],9 (69.2) %
same,Median PFS (95% CI),[6],8.9 (5.3-12.9) months
same,Median TTP (95% CI),[6],8.9 (5.3-12.9) months
same,"PFS landmark 6-months, % (95% CI)",[6],83.1 (47.2-95.5) %
same,"PFS landmark 12-months, % (95% CI)",[6],26.0 (4.3-56.2) %
same,DoR 25th percentile,[7],5.5 months
same,DoR 75th percentile,[7],7.1 months
same,DoR Median (95% CI),[7],"6.3 (5.5, 7.1) months"
same,estimated PFS rate at 9 months,[1],53.5%
same,estimated TTP rate at 6 months,[8],76.2%
same,estimated TTP rate at 9 months,[8],57.0%
same,estimated TTP rate at 12 months,[8],43.7%
same,Median time to response,"RECIST V1.1, Investigator, 11 responders",57.0 days
same,BOR: Complete Response,[9],0%
same,BOR: Not Evaluable,[9],0%
same,BOR: Partial Response,[9],(20.7) %
same,BOR: Progressive Disease,[9],(10.3) %
same,BOR: Stable Disease,[9],(69.0) %
same,DoR 25th percentile,[9],7.4 months
same,DoR 75th percentile,[9],14.9 months
same,DoR Median,[9],13.5 months
same,BOR: Complete Response,[10],0%
same,BOR: Not Evaluable,[10],0%
same,BOR: Partial Response,[10],(11.4) %
same,BOR: Progressive Disease,[10],(11.4) %
same,BOR: Stable Disease,[10],(77.3) %
same,DoR 25th percentile,[10],14.6 months
same,DoR 75th percentile,[10],17.3 months
same,DoR Median,[10],17.3 months
same,BOR: Complete Response,[11],0%
same,BOR: Not Evaluable,[11],0%
same,Median TTP (95% CI),[11],9.1 (8.5-13.8) months
same,"PFS landmark 6-months, % (95% CI)",[11],76.3 (64.2-84.8) %
same,"PFS landmark 12-months, % (95% CI)",[11],39.7 (27.4-51.6) %
same,DoR 25th percentile,[12],11.9 months
same,DoR 75th percentile,[12],17.3 months
same,DoR Median (95% CI),[12],"14.9 months and 14.9 (4.9, 17.3) months"
same,Median PFS (95% CI),[12],9.0 (7.5-12.8) months
same,BOR: Complete Response,[13],0%
same,BOR: Not Evaluable,[13],0%
same,BOR: Partial Response,[13],11 (18.3) %
same,BOR: Progressive Disease,[13],6 (10.0) %
same,BOR: Stable Disease,[13],43 (71.7) %
same,"DCR (disease control rate, CR, PR or SD ≥3 months)",[13],37 (61.7) %
same,Median PFS (95% CI),[13],9.0 (7.3-12.8) months
same,Median TTP (95% CI),[13],9.0 (7.3-13.5) months
same,ORR (objective response rate),[13],11 (18.3) %
same,"PFS landmark 6-months, % (95% CI)",[13],74.5 (60.7-84.1) %
same,"PFS landmark 12-months, % (95% CI)",[13],38.7 (25.5-51.8) %
same,DoR 25th percentile,[14],11.9 months
same,DoR 75th percentile,[14],17.3 months
same,DoR Median (95% CI),[14],"14.9 (4.9, 17.3) months"
same,BOR: Complete Response,[15],0%
same,BOR: Not Evaluable,[15],0%
same,BOR: Partial Response,[15],0%
same,BOR: Progressive Disease,[15],2 (15.4) %
same,BOR: Stable Disease,[15],11 (84.6) %
same,"DCR (disease control rate, CR, PR or SD ≥3 months)",[15],10 (76.9) %
same,Median PFS (95% CI),[15],10.6 (7.1-17.7) months
same,Median TTP (95% CI),[15],16.4 (8.9-19.1) months
same,ORR (objective response rate),[15],0%
same,"PFS landmark 6-months, % (95% CI)",[15],84.6 (51.2-95.9) %
same,"PFS landmark 12-months, % (95% CI)",[15],43.0 (13.8-69.8) %
same,estimated PFS rate at 9 months,[8],53.6%
same,"Maximum Change in SOT During the first 6 Months on Treatment with Rivoceranib, Mean",[16],−9.9 mm
same,"Maximum Change in SOT During the first 6 Months on Treatment with Rivoceranib, Median",[16],−7.0 mm
same,"Maximum Change in SOT at Any Time on Treatment, Mean",[16],−10.4 mm
same,"Maximum Change in SOT at Any Time on Treatment, Median",[16],−8.0 mm
same,patients with initial response observed at 100 mg,[17],1 patient
same,patients with initial response observed at 200 mg,[17],1.3%
same,patients with initial response observed at 300 mg,[17],4.1%
same,patients with initial response observed at 500 mg,[17],5.5%
same,patients with initial response observed at 700 mg,[17],2.7%
same,patients who died due to disease progression or cancer despite treatment,[18],≥ 21.3%
same,patients who had disease progression despite treatment,[18],48.5%
